According to PubChem BioAssay AID839 (SRMLSC, 2007):
Active and inactive are the calls of the source. The rule behind the calls is not given here.

Test: yeast growth inhibition, transport mutant vs wild type, confirmation, post-Golgi transport mutant, OD600 growth rate (AID 839)
Conditions: yeast transport mutant vs control strains, at 40 µM, stronger effect = higher value

Point of comparison: `O=C(COc1ccc(Cl)cc1Cl)NCCCN1CCOCC1`, growth inhibition 6.19%. Against it:
- CC1CC(C)CN(CCOc2ccc(Cl)cc2Cl)C1 (stereo unspecified) — higher, 46.7%
- C=C(C)C1CC=C(CN2CC(C)OC(C)C2)CC1 (stereo unspecified) — lower, 4.31%
- Cc1ccc(Cl)c(OCCCCN(C)Cc2ccccc2)c1 — higher, 72.6%
- N=c1c2c(-c3ccccc3)c(-c3ccccc3)n(Cc3ccco3)c2ncn1Cc1ccccc1 — higher, 38.2%
- O=C(COc1ccc(Br)cc1F)NC1CCN(Cc2ccccc2)CC1 — higher, 27.4%
- O=C(C1COc2ccccc2O1)N1CCN(Cc2ccc3c(c2)OCO3)CC1 (stereo unspecified) — higher, 7.29%
- CC(C)c1ccc(C(=O)CSc2n[nH]c(-c3ccncc3)n2)cc1 — higher, 12.5%
- CC1CN(CCCCOc2ccc(C(C)C)cc2)CC(C)O1 (stereo unspecified) — higher, 26.4%
- Cc1ccc(CN2CCN(/N=C/c3cc(Br)ccc3O)CC2)cc1 — higher, 21.1%
- Clc1ccc(Cn2nnc(-c3ccc(CN4CCOCC4)cc3)n2)cc1 — higher, 26.7%
- CC1CCCN(CCOCCOc2ccc(Cl)cc2Br)C1 (stereo unspecified) — higher, 53.2%
- CCCCCOc1ccc(Cl)cc1CN1CCOCC1 — higher, 17.8%
- O=C(OCn1ncc(Cl)c(Cl)c1=O)c1ccc(C(F)(F)F)cc1 — higher, 46.7%
- Clc1cc(Br)ccc1OCCOCCN1CCOCC1 — higher, 8.89%
- Cc1ccc(OCC(O)CN2CCN(Cc3ccc4c(c3)OCO4)CC2)c(C)c1 (stereo unspecified) — higher, 33%
- Cc1nc(NC(=O)c2ccccc2)sc1-c1csc(NCc2ccccc2)n1 — higher, 32.7%
- CC1CN(CC(O)COc2ccc(C(C)C)cc2)CC(C)O1 (stereo unspecified) — higher, 8.85%
- O=S(=O)(c1ccc(Cl)cc1)N1CCN(C2CCN(Cc3ccccc3)CC2)CC1 — higher, 10.4%
- CCOC(=O)COc1ccccc1C1Nc2ccccc2C(=O)N1c1cccc(Cl)c1 (stereo unspecified) — higher, 21.1%
- Cc1cc(C(C)(C)C)ccc1OCCN1CCCC1 — higher, 18.2%
- CCCCCCOc1ccc(CN2CCN(CCO)CC2)cc1 — higher, 33.4%
- Cc1ccc(C(=O)c2c(NC(=O)c3ccncc3)sc3c2CCCC3)cc1 — higher, 14.7%

For `C=C(C)C1CC=C(CN2CCC(C(=O)OCC)CC2)CC1` (stereo unspecified), the growth inhibition was 1.06% (inactive).

Same assay, conditions: yeast transport mutant vs control strains, measured here: mutant growth inhibition 20 uM, at 20 µM, stronger effect = higher value

Point of comparison: `Cc1ccc(C(=O)c2c(NC(=O)c3ccncc3)sc3c2CCCC3)cc1`, growth inhibition 19.8%. Against it:
- CC1CC(C)CN(CCOc2ccc(Cl)cc2Cl)C1 (stereo unspecified) — higher, 30.7%
- C=C(C)C1CC=C(CN2CC(C)OC(C)C2)CC1 (stereo unspecified) — lower, 11.8%
- Cc1ccc(Cl)c(OCCCCN(C)Cc2ccccc2)c1 — higher, 31.6%
- N=c1c2c(-c3ccccc3)c(-c3ccccc3)n(Cc3ccco3)c2ncn1Cc1ccccc1 — lower, 8.14%
- O=C(COc1ccc(Br)cc1F)NC1CCN(Cc2ccccc2)CC1 — lower, 12.6%
- O=C(C1COc2ccccc2O1)N1CCN(Cc2ccc3c(c2)OCO3)CC1 (stereo unspecified) — lower, 6.43%
- CC(C)c1ccc(C(=O)CSc2n[nH]c(-c3ccncc3)n2)cc1 — lower, 7.43%
- CC1CN(CCCCOc2ccc(C(C)C)cc2)CC(C)O1 (stereo unspecified) — lower, 12.1%
- Cc1ccc(CN2CCN(/N=C/c3cc(Br)ccc3O)CC2)cc1 — lower, 18.9%
- Clc1ccc(Cn2nnc(-c3ccc(CN4CCOCC4)cc3)n2)cc1 — lower, 11.9%
- CC1CCCN(CCOCCOc2ccc(Cl)cc2Br)C1 (stereo unspecified) — higher, 23.4%
- CCCCCOc1ccc(Cl)cc1CN1CCOCC1 — higher, 26%
- O=C(OCn1ncc(Cl)c(Cl)c1=O)c1ccc(C(F)(F)F)cc1 — higher, 50.9%
- Clc1cc(Br)ccc1OCCOCCN1CCOCC1 — lower, 8.52%
- Cc1ccc(OCC(O)CN2CCN(Cc3ccc4c(c3)OCO4)CC2)c(C)c1 (stereo unspecified) — lower, 12.9%
- Cc1nc(NC(=O)c2ccccc2)sc1-c1csc(NCc2ccccc2)n1 — higher, 20%
- CC1CN(CC(O)COc2ccc(C(C)C)cc2)CC(C)O1 (stereo unspecified) — lower, 5.56%
- O=S(=O)(c1ccc(Cl)cc1)N1CCN(C2CCN(Cc3ccccc3)CC2)CC1 — lower, 7.74%
- CCOC(=O)COc1ccccc1C1Nc2ccccc2C(=O)N1c1cccc(Cl)c1 (stereo unspecified) — lower, 19.4%
- O=C(COc1ccc(Cl)cc1Cl)NCCCN1CCOCC1 — lower, 7.28%
- Cc1cc(C(C)(C)C)ccc1OCCN1CCCC1 — lower, 18.4%
- CCCCCCOc1ccc(CN2CCN(CCO)CC2)cc1 — higher, 20.7%
- C=C(C)C1CC=C(CN2CCC(C(=O)OCC)CC2)CC1 (stereo unspecified) — lower, -2.77%

Same assay, conditions: yeast transport mutant vs control strains, measured here: wild type growth inhibition 20 uM, at 20 µM, stronger effect = higher value

Point of comparison: `CC1CN(CC(O)COc2ccc(C(C)C)cc2)CC(C)O1` (stereo unspecified), growth inhibition -2.84%. Against it:
- CC1CC(C)CN(CCOc2ccc(Cl)cc2Cl)C1 (stereo unspecified) — higher, 8.64%
- C=C(C)C1CC=C(CN2CC(C)OC(C)C2)CC1 (stereo unspecified) — higher, 13.7%
- Cc1ccc(Cl)c(OCCCCN(C)Cc2ccccc2)c1 — higher, 11.1%
- N=c1c2c(-c3ccccc3)c(-c3ccccc3)n(Cc3ccco3)c2ncn1Cc1ccccc1 — higher, 9.7%
- O=C(COc1ccc(Br)cc1F)NC1CCN(Cc2ccccc2)CC1 — higher, 2.81%
- O=C(C1COc2ccccc2O1)N1CCN(Cc2ccc3c(c2)OCO3)CC1 (stereo unspecified) — higher, -1.59%
- CC(C)c1ccc(C(=O)CSc2n[nH]c(-c3ccncc3)n2)cc1 — higher, 4.42%
- CC1CN(CCCCOc2ccc(C(C)C)cc2)CC(C)O1 (stereo unspecified) — higher, 2.42%
- Cc1ccc(CN2CCN(/N=C/c3cc(Br)ccc3O)CC2)cc1 — higher, 7.91%
- Clc1ccc(Cn2nnc(-c3ccc(CN4CCOCC4)cc3)n2)cc1 — higher, 8.16%
- CC1CCCN(CCOCCOc2ccc(Cl)cc2Br)C1 (stereo unspecified) — higher, 8.13%
- CCCCCOc1ccc(Cl)cc1CN1CCOCC1 — higher, 7.83%
- O=C(OCn1ncc(Cl)c(Cl)c1=O)c1ccc(C(F)(F)F)cc1 — higher, 13.4%
- Clc1cc(Br)ccc1OCCOCCN1CCOCC1 — higher, 2.58%
- Cc1ccc(OCC(O)CN2CCN(Cc3ccc4c(c3)OCO4)CC2)c(C)c1 (stereo unspecified) — higher, 2.63%
- Cc1nc(NC(=O)c2ccccc2)sc1-c1csc(NCc2ccccc2)n1 — higher, 6.67%
- O=S(=O)(c1ccc(Cl)cc1)N1CCN(C2CCN(Cc3ccccc3)CC2)CC1 — higher, 0.396%
- CCOC(=O)COc1ccccc1C1Nc2ccccc2C(=O)N1c1cccc(Cl)c1 (stereo unspecified) — higher, 13%
- O=C(COc1ccc(Cl)cc1Cl)NCCCN1CCOCC1 — higher, 3.8%
- Cc1cc(C(C)(C)C)ccc1OCCN1CCCC1 — higher, 7.77%
- CCCCCCOc1ccc(CN2CCN(CCO)CC2)cc1 — higher, 7.37%
- Cc1ccc(C(=O)c2c(NC(=O)c3ccncc3)sc3c2CCCC3)cc1 — higher, 13.5%
- C=C(C)C1CC=C(CN2CCC(C(=O)OCC)CC2)CC1 (stereo unspecified) — higher, 0.148%

Same assay, conditions: yeast transport mutant vs control strains, measured here: wild type growth inhibition 40 uM, at 40 µM, stronger effect = higher value

Point of comparison: `Cc1ccc(CN2CCN(/N=C/c3cc(Br)ccc3O)CC2)cc1`, growth inhibition 7.23%. Against it:
- CC1CC(C)CN(CCOc2ccc(Cl)cc2Cl)C1 (stereo unspecified) — higher, 14.7%
- C=C(C)C1CC=C(CN2CC(C)OC(C)C2)CC1 (stereo unspecified) — lower, 1.76%
- Cc1ccc(Cl)c(OCCCCN(C)Cc2ccccc2)c1 — higher, 22.1%
- N=c1c2c(-c3ccccc3)c(-c3ccccc3)n(Cc3ccco3)c2ncn1Cc1ccccc1 — higher, 12.7%
- O=C(COc1ccc(Br)cc1F)NC1CCN(Cc2ccccc2)CC1 — lower, 5.41%
- O=C(C1COc2ccccc2O1)N1CCN(Cc2ccc3c(c2)OCO3)CC1 (stereo unspecified) — lower, 5.57%
- CC(C)c1ccc(C(=O)CSc2n[nH]c(-c3ccncc3)n2)cc1 — higher, 13.6%
- CC1CN(CCCCOc2ccc(C(C)C)cc2)CC(C)O1 (stereo unspecified) — higher, 7.83%
- Clc1ccc(Cn2nnc(-c3ccc(CN4CCOCC4)cc3)n2)cc1 — higher, 12.6%
- CC1CCCN(CCOCCOc2ccc(Cl)cc2Br)C1 (stereo unspecified) — higher, 12.7%
- CCCCCOc1ccc(Cl)cc1CN1CCOCC1 — lower, -7.6%
- O=C(OCn1ncc(Cl)c(Cl)c1=O)c1ccc(C(F)(F)F)cc1 — higher, 16.2%
- Clc1cc(Br)ccc1OCCOCCN1CCOCC1 — lower, 3.79%
- Cc1ccc(OCC(O)CN2CCN(Cc3ccc4c(c3)OCO4)CC2)c(C)c1 (stereo unspecified) — higher, 10%
- Cc1nc(NC(=O)c2ccccc2)sc1-c1csc(NCc2ccccc2)n1 — higher, 15%
- CC1CN(CC(O)COc2ccc(C(C)C)cc2)CC(C)O1 (stereo unspecified) — lower, -1.47%
- O=S(=O)(c1ccc(Cl)cc1)N1CCN(C2CCN(Cc3ccccc3)CC2)CC1 — lower, 3.66%
- CCOC(=O)COc1ccccc1C1Nc2ccccc2C(=O)N1c1cccc(Cl)c1 (stereo unspecified) — higher, 24.8%
- O=C(COc1ccc(Cl)cc1Cl)NCCCN1CCOCC1 — lower, 6.18%
- Cc1cc(C(C)(C)C)ccc1OCCN1CCCC1 — higher, 7.54%
- CCCCCCOc1ccc(CN2CCN(CCO)CC2)cc1 — higher, 13.6%
- Cc1ccc(C(=O)c2c(NC(=O)c3ccncc3)sc3c2CCCC3)cc1 — higher, 18.9%
- C=C(C)C1CC=C(CN2CCC(C(=O)OCC)CC2)CC1 (stereo unspecified) — lower, 1.89%
